Source: publication PMC3579217 (Journal of molecular biology, 2012)

Biological target: myrMA (myristoylated M-PMV matrix protein) (Mason-Pfizer monkey virus, UniProt P07567)
Test: 1H/[…] HSQC NMR titration
Assay type: binding

Chain of myrMA (myristoylated M-PMV matrix protein) (P07567 2-118): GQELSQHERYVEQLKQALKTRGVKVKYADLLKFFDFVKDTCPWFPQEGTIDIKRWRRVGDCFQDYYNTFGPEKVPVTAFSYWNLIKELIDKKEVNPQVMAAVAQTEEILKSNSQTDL

CCCCCCCC(=O)OC[C@H](COP(=O)(O)O[C@@H]1[C@H](O)[C@H](O)[C@@H](OP(=O)(O)O)[C@H](OP(=O)(O)O)[C@H]1O)OC(=O)CCCCCCC [C8-PI(4,5)P2]
Kd: 92.8 ± 7.5 µM
